According to patent US20160266153A1, “I[…] PREGABALIN” (Randox Laboratories Limited, priority 2015, published 2016):
≈ marks a conversion by molar mass, not a printed value.

How the values were obtained:
[1] = test system: antibody RS2845 (raised against Immunogen II); assay: Competitive ELISA: HRP tracer (Tracer 1) versus pregabalin or potential cross-reactants for binding sites of polyclonal antibody RS2845; conditions: for % Cross-Reactivity: % CR = IC50 pregabalin/IC50 CR x 100, cross-reactants assessed at 5 μg/ml, (S) pregabalin as calibrator; for IC50 (standard concentration which produces 50% B/B0): antibody RS2845 coated at 5 μg/ml, Tracer 1, (S) enantiomer of pregabalin as calibrator
Procedure: The antibody titre is evaluated by coating a microtitre plate (Thermo Fisher Scientific NUNC, 468667) with antibody (125 μl/well) in coating buffer (10 mM Tris pH 8.5) at 37° C. for 2 hours. The plate is then washed 4 times over 10 minutes with working strength mixture of Tris-Buffered Saline and Tween 20 (TBST). 50 μl of sample/standard (pregabalin) is added to the appropriate wells in triplicate, followed by 75 μl of hapten-HRP conjugate and incubated at 25° C. for 1 hour. The plate is then washed and 125 μl of TMB (Randox Laboratories, 4380-15) added to each well and left at room temperature for 20 mins in the dark. The reaction is stopped using 125 μl of 0.2 M sulphuric acid. The absorbances are read at 450 nm with an ELISA microplate reader (BIO-TEK Instruments, Elx800) and the means calculated. Antibody sensitivity can then be determined.
IgG was extracted from serum from the immunized animal the using ammonium sulphate/caprylic acid precipitation and the purified antibody was immobilised on a 96 well ELISA plate at 5 μg/ml in 10 mM TRIS buffer, pH 8.5 overnight at 4° C. The assay was based on competition for binding sites of a polyclonal antibody between HRP tracer and pregabalin or potential cross-reactants. The plate was washed (×3) with TBST and the calibrator (pregabalin) or potential cross reactants added (50 μl per well), followed by HRP tracer (75 μl/well) to the appropriate wells. The plates were then incubated for 60 minutes at 25° C. They were then subjected to 2 quick wash cycles using TBST, followed by 4×2 minute wash cycles. 125 μL of signal 25 (TMB) was then added to each well for 20 mins at room temperature in the dark. The reaction was stopped by the addition of 125 μl of 0.2 M Sulphuric Acid per well and the plates read immediately at 450 nm. Calibration curves were generated and these were used to determine the sensitivity and specificity of the immunoassay for pregabalin and potential cross-reactants. The data was inputted to a computer program called ‘KC Junior’ (Biotek). […] This program is used to calculate the IC50 values by dividing the 0 ng/ml optical density (OD) value by 2 and obtaining the concentration value from the curve for this OD.
wherein % CR is the percentage cross-reactivity, IC50 pregabalin is the concentration of pregabalin which causes 50% displacement of signal and IC50 CR is the concentration of potential cross-reactant that causes 50% displacement of signal.
The antibody (RS2845) used to generate the data in the tables below was raised from Immunogen II (Example 9) and the HRP tracer was prepared as in Example 10 (Tracer 1).

[2] = in vivo; cited from earlier work

Row | SMILES | % Cross-Reactivity [1] [%] | also measured
1 | CCC(C)CC(C)N (centres unmarked) [1,3-dimethylamylamine (DMAA), 1,3-dimethylamylamine] | 2.2 | 
2 | NC(=O)N1c2ccccc2C=Cc2ccccc21 [Carbamazepine] | <1 | 
3 | N[C@H](CCC(=O)O)C(=O)O [D-Glutamic Acid] | <1 | 
4 | NC(=O)OCC(COC(N)=O)c1ccccc1 [Felbamate] | <1 | 
5 | NCC1(CC(=O)O)CCCCC1 [Gabapentin] | <1 | 
6 | NCCCC(=O)O [Gamma-aminobutyric acid] | <1 | 
7 | N[C@@H](CCC(=O)O)C(=O)O [L-Glutamic Acid] | <1 | 
8 | COC[C@@H](NC(C)=O)C(=O)NCc1ccccc1 [Lacosamide] | <1 | 
9 | CC[C@@H](C(N)=O)N1CCCC1=O [Levetiracetam] | <1 | 
10 | CNC[C@H](CC(=O)O)CC(C)C [N-methylpregabalin, N-methyl pregabalin] | <1 | 
11 | CC(C)CC(CN)CC(=O)O (centres unmarked) [Pregabalin, 3-(aminomethyl)-5-methylhexanoic acid] | 100 | IC50 (standard concentration which produces 50% B/B0) [1]: 0.266 ng/mL (≈ 1.67 nM); IC50 (standard concentration which produces 50% B/B0) ([1]; listed as pregabalin): about 0.266 ng/ml; B/B0 ([1]; pregabalin 0.02 ng/ml): 76%; B/B0 ([1]; pregabalin 0.08 ng/ml): 52%; B/B0 ([1]; pregabalin 0.31 ng/ml): 28%; B/B0 ([1]; pregabalin 1.25 ng/ml): 14%; B/B0 ([1]; pregabalin 5.00 ng/ml): 7%; Dose excreted unchanged in the urine [2]: about 98%; Metabolism [2]: negligible metabolism
12 | NCCc1c[nH]c2ccc(O)cc12 [Serotonin] | <1 | 
13 | CC(C)(C)C(O)/C=C/c1ccc2c(c1)OCO2 (centres unmarked) [Stiripentol] | <1 | 
14 | Cc1ccsc1C(=CCCN1CCC[C@@H](C(=O)O)C1)c1sccc1C [Tiagabine] | <1 | 
15 | CC1(C)O[C@@H]2[C@@H](CO[C@@]3(COS(N)(=O)=O)OC(C)(C)O[C@@H]23)O1 [Topiramate] | <1 | 
16 | CCCC(CCC)C(=O)O [Valproic acid] | <1 | 
17 | C=CC(N)CCC(=O)O (centres unmarked) [Vigabatrin] | <1 | 
